In ChEMBL document CHEMBL1909046, “DrugMatrix in vitro pharmacology data” one finds IC50 and Ki data, which are given here for nine compounds.

For data set [1], the target named is Beta-2 adrenergic receptor (Homo sapiens, UniProt P07550). The data set can be described thus: DRUGMATRIX: Adrenergic beta2 radioligand binding (ligand: [3H] CGP-12177). Conditions: Not Active = under 50% inhibition at 10 µM. The data set is classed as cell membranes, CHO, Membrane.
The next data set concerns the target Vasopressin V1a receptor (Homo sapiens, UniProt P37288). The data set is classed as cell membranes, Membrane. The following applies: hek293. Also: in other assays of this panel Not Active means under 50% inhibition at 10 µM.
In another data set the target is Carbonic anhydrase 2 (Homo sapiens, UniProt P00918). In words: DRUGMATRIX: Carbonic Anhydrase II enzyme inhibition (substrate: 4-Nitrophenyl acetate (4-NPA)). The data set is classed as tissue-based, Erythrocyte. The following applies: erythrocyte; Not Active = under 50% inhibition at 10 µM.
A further data set has as its target Glycine receptor (Rattus norvegicus, UniProt P22771+P24524+P07727+P20781). The data set is classed as cell membranes, Wistar, Spinal cord, Membrane. Also: in other assays of this panel Not Active means under 50% inhibition at 10 µM.
In data set [2] the target is T1, 3-hydroxy-3-methylglutaryl-coenzyme A reductase (Homo sapiens, UniProt P04035).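 Also: enzyme inhibition assay of HMG-CoA reductase using radiolabeled [14C]HMG-CoA as substrate; in other assays of this panel Not Active means under 50% inhibition at 10 µM.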
T1 sequence (P04035 whole entry): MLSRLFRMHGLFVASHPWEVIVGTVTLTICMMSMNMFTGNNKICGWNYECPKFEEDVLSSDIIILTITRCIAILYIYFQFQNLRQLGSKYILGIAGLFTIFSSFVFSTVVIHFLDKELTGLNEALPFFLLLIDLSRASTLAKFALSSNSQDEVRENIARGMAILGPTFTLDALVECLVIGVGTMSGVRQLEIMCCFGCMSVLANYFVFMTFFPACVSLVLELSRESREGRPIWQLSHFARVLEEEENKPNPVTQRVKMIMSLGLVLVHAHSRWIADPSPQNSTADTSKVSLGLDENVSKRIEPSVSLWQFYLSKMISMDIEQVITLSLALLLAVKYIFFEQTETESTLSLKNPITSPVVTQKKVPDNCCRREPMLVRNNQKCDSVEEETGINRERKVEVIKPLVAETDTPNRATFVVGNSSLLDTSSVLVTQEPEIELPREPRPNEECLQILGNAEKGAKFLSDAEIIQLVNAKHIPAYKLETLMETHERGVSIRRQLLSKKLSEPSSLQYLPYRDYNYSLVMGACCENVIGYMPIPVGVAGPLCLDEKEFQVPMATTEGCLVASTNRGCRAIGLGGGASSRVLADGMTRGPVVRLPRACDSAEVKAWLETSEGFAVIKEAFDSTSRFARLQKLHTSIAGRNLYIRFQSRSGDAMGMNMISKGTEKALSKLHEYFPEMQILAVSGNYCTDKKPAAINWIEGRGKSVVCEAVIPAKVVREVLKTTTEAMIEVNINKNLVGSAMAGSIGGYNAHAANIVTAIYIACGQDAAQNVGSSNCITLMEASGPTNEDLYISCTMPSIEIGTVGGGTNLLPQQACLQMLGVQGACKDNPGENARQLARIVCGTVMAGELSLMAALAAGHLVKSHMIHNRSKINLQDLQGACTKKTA
On the set-up: species or system Escherichia coli.

Another data set deals with Insulin receptor (Rattus norvegicus, UniProt P15127). It is filed as cell membranes, Wistar, Liver, Membrane.
Sequence of Insulin receptor (P15127 27-759 limits assumed): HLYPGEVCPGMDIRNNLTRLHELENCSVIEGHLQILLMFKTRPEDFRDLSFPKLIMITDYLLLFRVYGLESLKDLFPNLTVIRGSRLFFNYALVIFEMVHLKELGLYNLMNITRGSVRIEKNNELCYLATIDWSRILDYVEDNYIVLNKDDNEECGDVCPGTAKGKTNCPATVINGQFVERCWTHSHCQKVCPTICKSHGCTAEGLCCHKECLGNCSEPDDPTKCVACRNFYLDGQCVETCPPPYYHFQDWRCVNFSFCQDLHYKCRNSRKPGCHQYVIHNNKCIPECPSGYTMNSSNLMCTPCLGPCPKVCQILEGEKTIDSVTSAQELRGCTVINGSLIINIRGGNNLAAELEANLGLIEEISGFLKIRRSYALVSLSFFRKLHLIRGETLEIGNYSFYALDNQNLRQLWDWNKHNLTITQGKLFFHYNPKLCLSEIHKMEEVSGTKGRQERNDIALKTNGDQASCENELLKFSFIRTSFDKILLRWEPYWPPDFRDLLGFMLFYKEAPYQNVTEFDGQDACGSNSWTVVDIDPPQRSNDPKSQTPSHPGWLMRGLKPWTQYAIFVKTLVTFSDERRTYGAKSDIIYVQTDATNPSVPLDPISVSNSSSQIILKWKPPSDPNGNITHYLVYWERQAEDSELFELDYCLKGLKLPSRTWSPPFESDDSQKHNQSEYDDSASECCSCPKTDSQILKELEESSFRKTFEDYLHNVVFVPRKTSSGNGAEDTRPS
Sequence of Insulin receptor (P15127 764-1383 limits assumed): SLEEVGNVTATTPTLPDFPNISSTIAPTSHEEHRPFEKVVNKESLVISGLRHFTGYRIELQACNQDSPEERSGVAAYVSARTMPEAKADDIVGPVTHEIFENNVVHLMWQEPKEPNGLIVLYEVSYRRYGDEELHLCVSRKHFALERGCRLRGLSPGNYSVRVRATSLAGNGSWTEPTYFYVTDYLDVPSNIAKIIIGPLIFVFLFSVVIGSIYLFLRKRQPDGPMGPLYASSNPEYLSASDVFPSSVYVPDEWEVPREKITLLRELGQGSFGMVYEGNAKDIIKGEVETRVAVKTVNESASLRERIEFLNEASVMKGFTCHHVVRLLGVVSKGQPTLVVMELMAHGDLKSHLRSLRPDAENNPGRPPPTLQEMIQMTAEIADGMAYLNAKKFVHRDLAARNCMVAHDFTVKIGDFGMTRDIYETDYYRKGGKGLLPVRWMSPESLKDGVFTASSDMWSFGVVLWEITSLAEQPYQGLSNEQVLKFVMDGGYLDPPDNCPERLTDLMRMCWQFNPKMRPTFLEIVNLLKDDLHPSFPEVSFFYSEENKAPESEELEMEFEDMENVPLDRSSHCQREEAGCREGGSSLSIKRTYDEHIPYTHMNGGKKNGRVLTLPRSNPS
The target in data set [3] is Voltage-gated inwardly rectifying potassium channel KCNH2 (Homo sapiens, UniProt Q12809). Conditions: hek293. Also: in other assays of this panel Not Active means under 50% inhibition at 10 µM.
Sequence of Voltage-gated inwardly rectifying potassium channel KCNH2 (Q12809 whole entry): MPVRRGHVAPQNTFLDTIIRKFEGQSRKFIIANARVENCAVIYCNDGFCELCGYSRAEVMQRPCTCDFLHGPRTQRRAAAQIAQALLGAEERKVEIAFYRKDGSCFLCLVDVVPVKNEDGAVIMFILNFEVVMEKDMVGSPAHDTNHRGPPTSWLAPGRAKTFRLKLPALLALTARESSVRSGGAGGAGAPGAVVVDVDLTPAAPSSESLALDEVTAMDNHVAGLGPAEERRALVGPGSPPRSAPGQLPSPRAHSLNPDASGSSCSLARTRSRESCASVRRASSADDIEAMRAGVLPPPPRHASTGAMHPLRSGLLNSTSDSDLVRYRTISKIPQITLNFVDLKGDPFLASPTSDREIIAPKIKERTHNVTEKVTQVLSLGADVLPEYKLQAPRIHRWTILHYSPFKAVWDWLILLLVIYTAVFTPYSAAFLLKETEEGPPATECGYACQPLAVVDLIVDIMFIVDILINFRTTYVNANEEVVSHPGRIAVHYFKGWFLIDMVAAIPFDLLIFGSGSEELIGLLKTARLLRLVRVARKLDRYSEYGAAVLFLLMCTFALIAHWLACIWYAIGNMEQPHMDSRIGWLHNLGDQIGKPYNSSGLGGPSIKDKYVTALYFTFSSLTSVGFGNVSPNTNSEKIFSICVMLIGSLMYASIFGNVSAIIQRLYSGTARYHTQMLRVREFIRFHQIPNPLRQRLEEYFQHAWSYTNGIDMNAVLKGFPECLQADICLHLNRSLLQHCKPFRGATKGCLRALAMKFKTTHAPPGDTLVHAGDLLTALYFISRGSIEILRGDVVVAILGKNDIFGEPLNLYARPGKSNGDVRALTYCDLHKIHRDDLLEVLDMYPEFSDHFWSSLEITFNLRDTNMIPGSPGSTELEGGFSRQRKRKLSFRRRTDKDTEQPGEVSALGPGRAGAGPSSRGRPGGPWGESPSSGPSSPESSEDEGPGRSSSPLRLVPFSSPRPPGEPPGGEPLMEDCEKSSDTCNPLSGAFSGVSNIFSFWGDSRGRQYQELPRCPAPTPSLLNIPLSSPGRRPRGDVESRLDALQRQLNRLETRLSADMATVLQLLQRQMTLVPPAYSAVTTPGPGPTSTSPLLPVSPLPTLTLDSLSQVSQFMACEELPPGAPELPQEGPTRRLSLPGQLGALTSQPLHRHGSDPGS

Sequence of Beta-2 adrenergic receptor (P07550 whole entry): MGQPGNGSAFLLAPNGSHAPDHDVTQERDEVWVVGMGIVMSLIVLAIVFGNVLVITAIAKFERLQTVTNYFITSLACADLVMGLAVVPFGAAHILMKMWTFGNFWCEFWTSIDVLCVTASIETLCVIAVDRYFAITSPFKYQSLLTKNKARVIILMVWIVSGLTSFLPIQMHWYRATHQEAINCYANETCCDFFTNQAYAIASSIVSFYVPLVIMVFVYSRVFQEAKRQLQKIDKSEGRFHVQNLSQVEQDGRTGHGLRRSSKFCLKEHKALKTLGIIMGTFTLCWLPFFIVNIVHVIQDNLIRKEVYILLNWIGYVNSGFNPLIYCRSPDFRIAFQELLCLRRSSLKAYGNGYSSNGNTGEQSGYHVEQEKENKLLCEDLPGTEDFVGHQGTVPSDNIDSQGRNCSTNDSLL
Sequence of Vasopressin V1a receptor (P37288 whole entry): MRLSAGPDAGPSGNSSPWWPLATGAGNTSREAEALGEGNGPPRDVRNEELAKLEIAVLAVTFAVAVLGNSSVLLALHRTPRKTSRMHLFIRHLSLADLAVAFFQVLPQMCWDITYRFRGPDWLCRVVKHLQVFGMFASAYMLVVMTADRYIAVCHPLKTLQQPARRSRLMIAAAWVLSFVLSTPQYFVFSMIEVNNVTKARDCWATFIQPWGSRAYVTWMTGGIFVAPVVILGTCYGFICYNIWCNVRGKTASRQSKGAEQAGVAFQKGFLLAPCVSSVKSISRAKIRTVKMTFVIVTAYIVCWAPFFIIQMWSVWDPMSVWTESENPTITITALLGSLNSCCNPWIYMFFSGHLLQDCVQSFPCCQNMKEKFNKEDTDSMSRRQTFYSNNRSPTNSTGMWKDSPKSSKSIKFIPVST

A word on the IC50: it is the point on the concentration scale where inhibition reaches its midpoint. What is called Ki is the dissociation constant of the complex between target and ligand, obtained from inhibition or displacement. `C#C[C@]1(O)CC[C@H]2[C@@H]3CCC4=Cc5oncc5C[C@]4(C)[C@H]3CC[C@@]21C` [DANAZOL]: the IC50 entry (in data set [1] (cho); at Vasopressin V1a receptor; on Carbonic anhydrase 2; at Glycine receptor; in data set [2]; against Insulin receptor) was “Not Active” throughout. The IC50 entry in data set [3] is recorded as “Not Active”. Also, the Ki result in data set [3] was “Not Active”.
On to `CCN[C@@H](C)Cc1cccc(C(F)(F)F)c1` [DEXFENFLURAMINE], for which the IC50 entry (in data set [1] (cho); at Vasopressin V1a receptor; against Carbonic anhydrase 2; against Glycine receptor; in data set [2]; against Insulin receptor) was “Not Active” throughout. In addition, in data set [3], the IC50 result is reported as “Not Active”. The Ki result in data set [3] is on record as “Not Active”.
Take `C[C@H](C(=O)O)c1cccc(C(=O)c2ccccc2)c1` [DEXKETOPROFEN]: the IC50 entry (in data set [1] (cho); against Vasopressin V1a receptor; at Carbonic anhydrase 2; against Glycine receptor; in data set [2]; against Insulin receptor) was “Not Active” in each case. In data set [3], the IC50 result is listed as “Not Active”. Moreover, in data set [3], the inhibition constant Ki entry is reported as “Not Active”.
Take `CN1C[C@H](C(=O)N[C@]2(C)O[C@@]3(O)[C@@H]4CCCN4C(=O)[C@H](Cc4ccccc4)N3C2=O)C[C@@H]2c3cccc4[nH]cc(c34)C[C@H]21` [DIHYDROERGOTAMINE]: the IC50 result (in data set [1] (cho); against Vasopressin V1a receptor; against Carbonic anhydrase 2; on Glycine receptor; in data set [2]; on Insulin receptor) was “Not Active” in each case. Besides, the IC50 entry in data set [3] is listed as “Not Active”. Moreover, the inhibition constant (Ki) result in data set [3] was “Not Active”.
On to `Cc1c(N(C)CS(=O)(=O)[O-])c(=O)n(-c2ccccc2)n1C.[Na+]` [DIPYRONE SODIUM], for which the half-inhibitory concentration (IC50) entry (in data set [1] (cho); against Vasopressin V1a receptor; at Carbonic anhydrase 2; on Glycine receptor; in data set [2]; on Insulin receptor) was “Not Active” throughout. The IC50 entry in data set [3] is recorded as “Not Active”. Further, the Ki result in data set [3] is listed as “Not Active”.
With `CC(CCc1ccc(O)cc1)NCCc1ccc(O)c(O)c1` (stereo not drawn) [DOBUTAMINE], the IC50 is 1520 nM in data set [1] (read-out: IC50); “Not Active” against Vasopressin V1a receptor; “Not Active” on Carbonic anhydrase 2; “Not Active” at Glycine receptor; “Not Active” in data set [2]; “Not Active” against Insulin receptor. Moreover, the concentration for half-maximal inhibition (IC50) entry in data set [3] is reported as “Not Active”. Moreover, the Ki in data set [1] (read-out: Ki) is 1040 nM; in data set [3], “Not Active”.
As for `CCn1cc(C(=O)O)c(=O)c2cc(F)c(N3CCNCC3)nc21` [ENOXACIN], the IC50 result (in data set [1] (cho); at Vasopressin V1a receptor; at Carbonic anhydrase 2; at Glycine receptor; in data set [2]; against Insulin receptor) was “Not Active” throughout. In addition, the IC50 result in data set [3] was “Not Active”. Moreover, the Ki result in data set [3] is listed as “Not Active”.
As to `CCC(=O)O[C@H]1[C@H](O[C@@H]2[C@@H](C)[C@H](O[C@H]3C[C@@](C)(OC)[C@@H](O)[C@H](C)O3)[C@@H](C)C(=O)O[C@H](CC)[C@@](C)(O)[C@H](O)[C@@H](C)C(=O)[C@H](C)C[C@@]2(C)O)O[C@H](C)C[C@@H]1N(C)C` [ERYTHROMYCIN PROPIONATE], the IC50 entry (in data set [1] (cho); against Vasopressin V1a receptor; against Carbonic anhydrase 2; at Glycine receptor; in data set [2]; against Insulin receptor) was “Not Active” in each case. In data set [3], the IC50 entry was “Not Active”. Also, the Ki entry in data set [3] is reported as “Not Active”.
Regarding `C=C(CC)C(=O)c1ccc(OCC(=O)O)c(Cl)c1Cl` [ETHACRYNIC ACID], the IC50 entry (in data set [1] (cho); at Vasopressin V1a receptor; against Carbonic anhydrase 2; on Glycine receptor; in data set [2]; at Insulin receptor) was “Not Active” each time. Besides, the IC50 entry in data set [3] was “Not Active”. Besides, the Ki result in data set [3] is listed as “Not Active”.
